These results are taken from PMC8657848, “Developmental Toxicity and Biotransformation of Two Anti-Epileptics in Zebrafish Embryos and Early Larvae” (International Journal of Molecular Sciences, 2021).

In series [1] the test system is zebrafish embryos/larvae. Kind of series: Quantification of parent compounds and metabolites in whole zebrafish embryos/larvae homogenate extracts. Particulars: for Uptake by embryos and larvae (quantified in homogenate extracts): CBZ, PHE 31.25, 85, 250 µM, E-CBZ, HPPH 250 µM. The method, then: In three biological replicates (n = 3; 20 embryos/replicate) and at the two desired developmental stages (24 and 120 hpf), embryos/larvae of each test and control group were pooled and then rinsed three times with cold EMS (4 °C) on a mesh (Cell strainer […] Nylon, Steril Falcon®, Durham, NC, USA). Embryos collected at 24 hpf were not dechorionated, as the focus of this study was on the potential formation of the mammalian active metabolites. Moreover, it was argued that the chorion was more permeable than previously believed and that dechorionation could increase background malformations during gross morphology investigation. Embryos/larvae were then transferred and kept for five min in cryotubes (Cryo.S™, Greiner Bio-One, Frickenhausen, Germany) filled with 500 µL of cold embryo medium (4 °C), before being snap-frozen in liquid nitrogen and kept, for later use, at −80 °C (Figure 9).
The extraction preparation was based on Brox et al. for two developmental stages, 24 and 120 hpf, and performed in triplicate for each test group (n = 3, 20 embryos/replicate) (Figure 9). On the day of the extraction procedure, frozen samples (see Section 4.2.1) were thawed on ice and EMS was removed. A volume of 500 µL of acetonitrile (ACN) (purity ≥99.9%, Merck, Darmstadt, Germany) containing the internal standard lamotrigine, LAMO, (≥98% purity, CAS number: 84057-84-1, Sigma-Aldrich, Merck, Darmstadt, Germany) was then added to each tube to reach a final concentration of 0.39 µM, after dilution in HPLC-grade water. Samples were vortexed (VM3, CAT, Germany) for 5 min at a 2000 rotation/min speed, before being placed on ice and ultrasonicated with an Ultrasonic Processor VCX 130 (Sonics, Newtown, CT, USA) fifteen times for 30 s at an 80% amplitude with pause intervals of 30 s. Supernatants of the samples were then centrifuged (Centrifuge 5424 R, Eppendorf, Hamburg, Germany) twice at 4 °C for 15 min at 15,000× g, snap-frozen and kept for later use at −80 °C, whereas the pellets were discarded.
First, both sample types were processed to reach a final percentage of 30% ACN and a concentration of 0.39 µM of the IS, LAMO. […] Calibration curves and quality controls were prepared in their corresponding reaction mixtures to minimize matrix or extraction process effects. The analytical investigations were performed on an Acquity Ultra Performance Liquid Chromatography (UPLC) with sample manager, binary solvent manager, diode array detector and a triple-quadrupole detector (ACQUITY UPLC-triple quadrupole detector, Waters, Milford, CT, USA) equipped with the Masslynx software (version 4.1). […] Separation was accomplished in 6 min, using a flow rate of 0.5 mL/min. The solvent gradient program was set as follows: 85% A/15% B (0–0.5 min); 85–0% A/15–100% B (0.5–3.3 min); 0% A/100% B (3.3–4.4 min); 0–85% A/100–15% B (4.4–4.5 min); 85% A/15% B (4.5–6 min). The column was set at 40 °C and the injection volume was 10 μL. For the mass spectrometric conditions, the following parameters were used in positive ionization mode: capillarity voltage 3.5 kV, extractor voltage 3 V, cone voltage 35 V, Rf lens 0.1 V. The source temperature was set at 120 °C and the desolation temperature at 450 °C. The desolvation gas flow was fixed at 1000 L/h and cone gas flow at 50 L/h. […] The limit of quantification, linearity, matrix effects and specificity of the method developed for each compound were validated based on the European Medicines Agency (EMA) guidelines for bioanalytical method validation and the study from Kislyuk et al..
For the quantification of the metabolites E-CBZ and HPPH, the samples processed were the microsomal incubation reactions (see Section 4.3.2), the zebrafish culture and stock medium (4.2.1) and the zebrafish embryos/larvae extracts (see Section 4.2.3). Samples from the different experiments were also prepared, as for the parent compounds, to reach a final percentage of 30% ACN and a concentration of 0.39 µM of the IS, LAMO.

Series [2] can be described thus: Microsomal incubation with CBZ and PHE, rat liver microsomes. The format is in vitro ADME. The note with it: rat adult liver microsomes; data not shown. As for the experimental part: (§1) Moreover, positive and negative controls were included: pooled human liver microsomes (Gibco™, HMMCPL–PL050B, Thermo Fisher Scientific) and Insect Cell Control Supersomes™ (lot number: PL050 C-B, 456201, Corning Incorporated, Corning, NY, USA), respectively. Based on Oziolor et al., microsomal reactions were initiated after adding the substrate solution at a concentration of 100 µM (see Supplementary Table S1) in a mixture of 100 mM K3PO4 buffer (Corning® Gentest™, NY, USA) of pH 7.4, 5% and 1% of NADPH regenerating system reagents A and B, respectively (Corning, Woburn, MA, USA) and 200 µg/mL of microsomal protein, for a total volume of 500 µL. The reactions were performed at 28.5 ± 0.3 °C until the time point of interest. […]
(§2) For the quantification of the metabolites E-CBZ and HPPH, the samples processed were the microsomal incubation reactions (see Section 4.3.2), the zebrafish culture and stock medium (4.2.1) and the zebrafish embryos/larvae extracts (see Section 4.2.3). […] To quantify the concentrations of E-CBZ and HPPH in these samples, standard curves (in duplicate) of 10 concentrations for E-CBZ (0.5–400 ng/mL; see Supplementary Table S1) and HPPH (2–1600 ng/mL; see Supplementary Table S1) were prepared, as were quality controls. […]
(In general: Microsomes from liver hold many membrane-bound enzymes, among them those of drug oxidation.)

Series [3] in a line: Microsomal incubation with CBZ and PHE, rabbit liver microsomes. It is filed as in vitro ADME. The note with it: rabbit adult liver microsomes; data not shown. As for the experimental part:
as §1, §2

With `NC(=O)N1c2ccccc2C=Cc2ccccc21` [CBZ, carbamazepine], the “E-CBZ in embryo/larva extracts after exposure to CBZ” value in series [1] (31.25 µM CBZ, 24 and 120 hpf) is “could not be detected”. Besides, the “Internal concentration, fold lower at 120 hpf than at 24 hpf” value in series [1] (85 µM) is listed as 3.4 fold. In series [1] (24 and 120 hpf), the “Uptake by embryos and larvae (quantified in homogenate extracts)” value is reported as “taken up”. The entries for the “Decrease of parent compound after 240 min (pilot investigation)” value in series [2] and in series [3] were “no changes” and “slight decrease”, respectively.
Regarding `O=C1NC(=O)C(c2ccccc2)(c2ccccc2)N1` [PHE, phenytoin], the “Uptake by embryos and larvae (quantified in homogenate extracts)” value in series [1] (24 and 120 hpf) is listed as “taken up”. Moreover, the “HPPH in embryo/larva extracts after exposure to PHE” value in series [1] (24 hpf and 120 hpf, any samples) is “could not detect”. The “Internal concentration, times higher at 24 hpf than at 120 hpf” value in series [1] (all concentrations) is reported as approximately 5 times. Also, the “Decrease of parent compound after 240 min (pilot investigation)” value in series [2] and in series [3] was “very slight decrease” each time.
